Like-named read-outs stand apart in the source and are kept apart here.
T1: N-terminal domain of EI from Streptomyces coelicolor (EIN^sc) (Streptomyces coelicolor)
T1 chain: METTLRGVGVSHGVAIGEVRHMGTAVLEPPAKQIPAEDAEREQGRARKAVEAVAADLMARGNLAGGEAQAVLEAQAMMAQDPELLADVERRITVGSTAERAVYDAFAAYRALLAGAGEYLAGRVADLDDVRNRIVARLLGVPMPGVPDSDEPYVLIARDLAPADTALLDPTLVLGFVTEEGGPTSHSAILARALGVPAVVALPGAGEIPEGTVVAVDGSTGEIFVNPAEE

T2: Regulator of sigma D from Escherichia coli (Rsd^ec) (E. coli, UniProt P0AFX4 1-158)
T2 construct: Rsd (regulator of sigma D), anti-sigma factor of sigma 70, E. coli; 158-residue-long protein; called 'intact Rsd' in the abstract and 'wild-type Rsd vector' in the methods; Vector was a gift from Ann Hochschild; source: E. coli C41, purified as described [24,50]
T2 sequence (looked up): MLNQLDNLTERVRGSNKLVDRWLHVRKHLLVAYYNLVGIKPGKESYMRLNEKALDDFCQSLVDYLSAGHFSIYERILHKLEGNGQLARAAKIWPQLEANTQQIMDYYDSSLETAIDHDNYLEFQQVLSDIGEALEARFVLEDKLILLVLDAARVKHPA


Tests used:
Rsd^ec = biological target: T3, Rsd^ec (Escherichia coli, UniProt P0AFX4); experiment: Isothermal titration calorimetry (ITC), peptide/Rsd^ec binding; conditions: ITC, 25 °C; for ΔH, Rsd^ec: 50 mM Tris pH 7.0
T3 construct: His-tag; made in house; host or cells: E. coli C41
Protocol: (§1) The experimental set-up and data processing of ITC experiments has been described previously. Rsd^ec or EIN^sc (at 10–20 µM) were injected into the cell, and the peptides in the syringe (100–200 µM) in 50 mM of Tris buffer, pH 7.0. The temperature for all the experiments was 25 °C. Typically, each calorimetric titration consisted of performing 19 injections with 2 μL volume, with a time spacing of 150 s, while stirring at 750 rpm in an Auto-iTC200 high-sensitivity microcalorimeter (MicroCal, Malvern-Panalytical, Malvern, UK). The results were analysed by applying a model that considered a single binding site (assuming a 1:1 stoichiometry) for the peptide/EIN^sc or peptide/Rsd^ec interaction using a nonlinear least-squares regression analysis in Origin 7.0 (OriginLab, Northampton, MA, USA) with user-defined fitting routines.

[1] = tested on: Staphylococcus aureus CECT59; assay type: cell-based
Protocol: The CECT59 strain of the Gram-positive bacteria Staphylococcus aureus from the Spanish Type Culture Collection (Colección Española de Cultivos Tipo, CECT, Universitat de Valencia, Spain) was used for determining its sensitivity to the HPr peptides studied in this work. The MIC for each peptide was determined by the two-fold broth microdilution method according to the Clinical and Laboratory Standards Institute (CLSI) guidelines, with some modifications as previously described. For this testing procedure, a bacteria colony previously grown in MH agar plates was isolated and incubated in MH broth at 37 °C overnight to prepare the bacteria inoculum to be used in each assay. Then, the bacteria suspensions were adjusted to a 100× dilution of an 0.5 McFarland turbidity standard in MH broth and incubated with different concentrations of each peptide in round-bottom 96-well polystyrene plates (Deltalab S.L., Rubí, Spain) (50 μL/well) for 24 h at 37 °C. The peptide concentrations employed comprised two-fold dilutions starting at either 120, 160, or 400 µM, depending on the experiment. […] All assays were performed in triplicate.

[2] = Far-UV CD, helicity from molar ellipticity at 222 nm; assay type: physicochemical; conditions: 5 °C; for [Θ]^222 (value in parentheses): 50 mM Tris pH 7.0; for Helicity (%): 50 mM Tris pH 7.0, from [Θ]^222 assuming −39,500 deg cm^2 dmol^−1 for a fully formed α-helix
Protocol: Spectra were collected on a Jasco J810 spectropolarimeter (Jasco, Tokyo, Japan) interfaced with a Peltier unit. Far-UV measurements were performed with samples placed in quartz cells with a 0.1 cm path length (Hellma, Kruibeke, Belgium), with a response time of 2 s, a band width of 1 nm, and a scan velocity of 50 nm/min. For all peptides, a wide range of concentrations (10–50 µM) was used to determine whether either the shape or the intensity of the spectra was concentration-dependent. None of those features changed in the concentration range explored. The experiments in aqueous solution were acquired at 5 °C in Tris buffer (50 mM, pH 7.0). Raw ellipticity was converted to molar ellipticity, [Θ], from which the fraction of helical populations was determined as previously described. For the experiments in the presence of each protein (repeated three times), the same concentration used in the fluorescence experiments was used, and the experimental set-up was the same as described above for the isolated peptides.

[3] = TFE titration followed by far-UV CD (disordered-helical two-state equilibrium); assay type: physicochemical; conditions: for [TFE]1/2 / m: TFE titration by far-UV CD, 20 µM peptide, two-state fit, fitting errors; for percentage of helical population (in parentheses): from ∆G^water assuming a two-state conformational equilibrium; for ∆G^water: product of m- and [TFE]1/2 values, error propagation
Protocol: For experiments in the presence of TFE, the same set of experimental parameters was used. Cosolvent concentrations were indicated in percentage of volume (%). […] The peptide concentration for these experiments was 20 µM.

[4] = Translational diffusion NMR (DOSY); assay type: physicochemical; conditions: for D (translational diffusion coefficient): DOSY, 10 °C, 100% D2O, 70-120 µM peptide, fitting errors, repeated twice; for Rh (in parentheses, from DOSY): from comparison with the Rh of dioxane (2.12 Å)
Protocol: (b) Translational diffusion NMR (DOSY): Peptide concentrations were the same as those used in the 1D-^1H-NMR spectra. Translational self-diffusion measurements were performed with the pulsed-gradient spin-echo sequence in the presence of 100% D2O. The following relationship existed between the translational self-diffusion coefficient, D, and the delays used during experiment acquisition:(2) I/I0=−exp(DγH2δ^2G^2(Δ−δ/3−τ/2)) where I is the peak intensity of a particular resonance (or a group of them) at any gradient strength; I0 is the maximum peak intensity of the same resonance(s) at the smallest gradient strength (that is, at 2% of the total power of the gradient coil); D is the translational self-diffusion constant (in cm^2 s^−1); δ is the duration (in s) of the gradient; G is the gradient strength (in T cm^−1); ∆ is the time (in s) between the gradients; γH is the gyromagnetic constant of the proton (in rad s^−1 T^−1); and τ is the recovery delay between the bipolar gradients (100 µs in our experiments). The gradient strength (G) was varied in 16 lineal steps, between 2 and 95% of the total power of the gradient coil of the probe. The gradient strength was calibrated by using the value of D for the residual proton water line in a sample containing 100% D2O placed in a 5 mm tube [42]. Data were plotted as I/I0 versus G^2, and the exponential factor of the curve was:(3) DγH2δ^2(Δ−δ/3−τ/2) from which D can be obtained. The duration of the gradient (δ) was 2.25 ms, and the time between the two gradients (∆) was set to 200 ms. The signal from the methyl groups between 1.1 and 0.70 ppm were used for integration of the intensity. A final concentration of 1% of dioxane was added to each peptide; the hydrodynamic radius, Rh, of each peptide was obtained for comparison by assuming that the Rh of dioxane was 2.12 Å [42]. The DOSY experiment was repeated twice with fresh samples for each peptide.

[5] = biological target: EIN^sc (N-terminal domain of EI^sc) (Streptomyces coelicolor, UniProt Q9KZP1); experiment: biochemical; assay type: binding
Protocol: as §1

EIN^sc = EIN^sc (Streptomyces coelicolor, UniProt Q9KZP1); experiment: biochemical; assay type: binding
Protocol: Spectra were collected at 25 °C on a Cary spectrofluorometer (Agilent, Madrid, Spain), with a Peltier temperature controller. The samples were prepared the day before and left overnight at 5 °C. Before measurements, the samples were incubated for 1 h at 25 °C. A quartz cell with a 1 cm path length (Hellma, Kruibeke, Belgium) was used. In all the experiments, the slit widths were equal to 5 nm for both the excitation and emission lights. Protein samples were excited at either 280 or 295 nm. The experiments were performed between 300 and 400 nm. The signal was acquired for 1 s, and the increment of wavelength was set to 1 nm. Appropriate blank corrections were made in all spectra. For the binding experiments, 3 µM of either protein (Rsd^ec or EIN^sc) and 15 µM of the corresponding peptide were mixed. The experiments in aqueous solution were acquired in Tris buffer (50 mM, pH 7.0).
For the titration between either of the two proteins (Rsd^ec or EIN^sc) and the corresponding peptide, increasing amounts of the latter, in a concentration range of 0 to 30 µM, were added to a solution with a fixed concentration of each protein (3 µM). The experimental set-up was identical to that described above, including preparation of the samples the day before and their storage overnight at 5 °C. Before measurements, the samples were incubated for 1 h at 25 °C. The fluorescence of a blank solution containing only the corresponding peptide was subtracted for each data point. […] The Kd was determined by following the fluorescence at selected wavelengths and fitting experimental data to Equation (1). […] At all used concentrations, the fluorescence was corrected by the inner-filter effects.

[6] = biological target: T1, N-terminal domain of EI from …; experiment: ITC; Rsd^ec or EIN^sc (10–20 µM) in the cell, peptide (100–200 µM) in the syringe; 50 mM Tris, pH 7.0, 25 °C; single binding-site model, 1:1 stoichiometry assumed; conditions: both partners purified
[7] = biological target: T2, Regulator of sigma D from Escherichia …; experiment: as above; conditions: both partners purified
[8] = biological target: T1, N-terminal domain of EI from …; experiment: other fluorescence titration; peptide 0–30 µM added to 3 µM Rsd^ec or EIN^sc; 50 mM Tris, pH 7.0, 25 °C; samples left overnight at 5 °C; blank of peptide subtracted; conditions: both partners purified
[9] = S. aureus CECT59, two-fold broth microdilution (CLSI), MH broth, 24 h, 37 °C, triplicate (sd = 0), highest concentration tested 400 µM

Row | Molecule | ΔH, Rsd^ec (Rsd^ec) [kcal/mol] | MIC [1, 9] [µM] | [Θ]^222 (value in parentheses) [2] [deg cm^2 dmol^−1] | Helicity (%) [2] [%] | [TFE]1/2 [3] | m [3] | percentage of helical population (in parentheses) [3] [%] | ∆G^water [3] [kcal/mol] | D (translational diffusion coefficient) [4] [cm^2 s^−1 × 10^6] | Rh (in parentheses, from DOSY) [4] [Å] | Kd (Rsd^ec; 50 mM Tris pH 7.0, single binding-site model, read-out: Kd, Rsd^ec (ITC)) [µM] | MIC ([1]; CECT59, 24 h) [µM] | Kd [5] [µM] | ΔH, EIN^sc ([5]; ITC, 25 °C, 50 mM Tris pH 7.0) [kcal/mol] | Kd (EIN^sc) [µM] | Kd [6] [µM] | dH [6] [kcal/mol] | Kd [7] [µM] | dH [7] [kcal/mol] | Kd [8] [µM]
1 | Ac-GWAEGLHARAASIFVRAATATG-NH2 [Peptide P18A] | 1.1 ± 0.4 | 120 | −1135.47 | 2.9 | 19.8 ± 0.4 % (v/v) | 181 ± 17 cal/mol (% (v/v)) | 0.15 | 3.6 ± 0.3 | 2.0 ± 0.1 | 11 ± 1 |  |  |  |  |  |  |  |  |  | 
2 | Ac-GWAEGLHARPASIAVRAATATG-NH2 [Peptide F22A] | 1.1 ± 0.5 | 400 | −84.95 | 0.2 | 22 ± 1 % (v/v) | 134 ± 27 cal/mol (% (v/v)) | 0.5 | 2.9 ± 0.6 | 1.83 ± 0.03 | 11 ± 1 |  |  |  |  |  |  |  |  |  | 
3 | Ac-GWAEGLHARAASAFARAATATG-NH2 [P18A/I21A/V23A] | 0.6 ± 0.4 |  | −2698.61 | 6.8 | 19.0 ± 0.9 % (v/v) | 184 ± 32 cal/mol (% (v/v)) | 0.17 | 3.5 ± 0.6 | 2.5 ± 0.4 | 9 ± 2 | 2.6 ± 0.4 | 60 |  |  |  |  |  |  |  | 
4 | Ac-GWAEGLHARPASIFARAATATG-NH2 [Peptide V23A] | -0.8 ± 0.5 | > 400 | −988.51 | 2.5 | 22.7 ± 0.3 % (v/v) | 217 ± 23 cal/mol (% (v/v)) | 0.01 | 4.9 ± 0.5 | 2.0 ± 0.1 | 11 ± 1 |  |  | 9.1 ± 0.9 | -6.6 ± 0.5 | 9 |  |  |  |  | 
5 | Ac-GWAEGLHARPASIFVRAATATG-NH2 (HPr (histidine phosphocarrier) of Streptomyces coelicolor, HPr^sc, residues 9-30; first letter printed as G^9; The limit residues are printed as Gly9-Ala30 (abstract) and Ala9-Gly30 (introduction); source: synthetic peptide, bought: NZYTech (purity >95%)) [HPr^9–30 wild-type peptide (residues 9-30 of HPr from Streptomyces coelicolor)] |  |  |  |  |  |  |  |  |  |  |  |  |  |  |  | 2.3 ± 0.4 | -0.8 ± 0.4 | 1.4 ± 0.3 | 1.3 ± 0.4 | 10
6 | Ac-GWAEGLHARAASAAARAATATG-NH2 (HPr of Streptomyces coelicolor, residues 9-30, with P18A, I21A, F22A and V23A; also called quadruple-mutant; source: synthetic peptide, bought: NZYTech (purity >95%)) [HPr^9–30 P18A/I21A/F22A/V23A peptide] |  |  |  |  |  |  |  |  |  |  |  |  |  |  |  | 1.1 ± 0.2 | 0.2 ± 0.4 |  | 4.3 ± 0.5 | 11
7 | Ac-GWAEGLHARPASIFARAATATG-NH2 (HPr of Streptomyces coelicolor, residues 9-30, with V23A; source: synthetic peptide, bought: NZYTech (purity >95%)) [HPr^9–30 V23A peptide] |  |  |  |  |  |  |  |  |  |  |  |  |  |  |  | 9.1 ± 0.9 | -6.6 ± 0.5 | 8.3 ± 0.9 | -0.8 ± 0.5 | 9
